Tests used:
[1] = Octanol extraction of serum, urine and gut contents after oral radiolabelled KP46 (speciation); format: in vivo, mice; conditions: 4 h
Procedure: Serum and urine from the “tracer level” group (E) were subjected to octanol extraction 24 h postadministration to determine the fraction of ^67Ga that may have survived in the form of [^67Ga]KP46 after absorption from the gut.
(§1) Oral [^68/67Ga]KP46: The protocol for oral administration experiments reported here was devised on the basis of pilot experiments described in Supplementary Materials (Figure S12). For short-term (up to 4 h) studies with ^68Ga, awake (nonanaesthetised, to avoid suppressive effects of anaesthesia on digestive tract activity) mice that had been fasted for up to 14 h were given [^68Ga]KP46 (5–13 MBq) (group C, “tracer”, n = 3) or [^68Ga]KP46 and KP46 (5–8.5 MBq) (group D, “bulk”, n = 3) by oral gavage. The dose given orally to group D animals, prepared as described above, was 0.4 μmol in 400 μL, molar activity ca. 25 MBq/μmol. The mice were fasted for three hours before being anaesthetised and PET/CT scanned dynamically for one hour (see below for scanning protocol). After scanning, mice in both groups were culled by neck dislocation while still anaesthetised four hours post-oral administration for organ harvesting and gamma counting. Samples of blood, urine and contents of stomach, small intestine and large intestine (the organs/tissue with measurable activity; tumours were not included as they were insufficiently radioactive) from the mice in group C were used for octanol extraction (shake-flask method) to separate water-soluble (released) and lipid-soluble (intact KP46) ^68Ga. Serum samples were prepared by placing blood samples in a serum separator tube (brand VS367954, Fisher Scientific Ltd., Loughborough, UK) and centrifuging at 3000 rpm for 10 min. Serum (200–300 µL) and urine samples (150–180 µL, taken from the excised bladders) were directly added to Eppendorf tubes containing a pre-equilibrated mixture of octanol (500 µL) and water (500 µL). The tubes were vortexed for two minutes on a Multi Vortex Mixer V-32 (Grant Bio). After separation of layers, a sample of 400 µL from each layer was transferred to fresh Eppendorf tubes and analysed with a gamma counter. Stomach content (72–77 mg), small intestine content (35–88 mg), and large intestine content (86–100 mg) samples from each mouse were analysed similarly by adding them directly to Eppendorf tubes containing a pre-equilibrated mixture of octanol (500 µL) and water (500 µL) before vortexing and centrifuging at 10,000 rpm for 10 min at 4 °C. From each layer, 430 µL was transferred to fresh Eppendorf tubes and analysed with a gamma counter; the solid residues were also counted. Tissues from mice in group D were used after radioactive decay for measurements of nonradioactive ^69Ga content.

[2] = PET imaging and ex vivo biodistribution 4 h after oral administration of [68Ga]KP46, tracer (group C) and bulk (group D); format: in vivo, mice; conditions: n = 3
Procedure: The tracer-level samples for oral administration were prepared in the same manner but with 20 μL of KP46-free DMSO in place of the KP46 solution in DMSO.
(§2) All animal experiments were performed in accordance with the Animals (Scientific Procedures) Act, 1986, with protocols approved by the Animal Welfare and Ethical Review Body for King’s College London under project and personal licences approved by the UK Home Office. Tumour xenograft studies were performed on female NSG mice or female athymic nude mice after injecting them subcutaneously in the right shoulder with 2.5 × 10^6 A375 cells in 100 µL of PBS. All in vivo studies were conducted between 14 and 24 days after inoculation, with tumour volumes between 100 mm^3 and 580 mm^3 (see Supplementary Materials, Figure S11).
as §1
PET/CT images were acquired with a nanoScan® PET/CT (Mediso Medical Imaging Systems, Budapest, Hungary) scanner operating in list mode using a 400–600 keV energy window and a coincidence window of 1:3. CT scans were acquired for anatomical reference and attenuation correction (55 keV X-ray, exposure time 1000 ms, and 360 projections and pitch 1). PET projection data were reconstructed using the Tera-tomo® software package provided with the scanner —a Monte Carlo-based fully 3D iterative algorithm with four iterations, six subsets, and 0.4 mm isotropic voxel size; corrections for attenuation, scatter, and dead-time were enabled. […]

[3] = PET imaging and ex vivo biodistribution 4 h after intravenous injection, NSG mice bearing A375 xenografts (groups A, B); format: in vivo; conditions: i.v., tracer level
Procedure: as §2
Intravenous [^68Ga]gallium acetate and [^68Ga]KP46: NSG mice bearing A375 xenografts were fasted for 12–14 h before the start of the experiment. Mice were anaesthetised with isoflurane and injected with tracer level [^68Ga]gallium acetate (group A, n = 5) or [^68Ga]KP46 (group B, n = 5) (13–18 MBq, <200 μL) via the tail vein. […] The organs were harvested, weighed, and gamma counted. […]
PET/CT images were acquired with a nanoScan® PET/CT (Mediso Medical Imaging Systems, Budapest, Hungary) scanner operating in list mode using a 400–600 keV energy window and a coincidence window of 1:3. […] The data were then visualised and quantified using VivoQuant^© v.2.50 (InviCro, Boston, MA, USA) software. […] Images were coregistered and analysed using VivoQuant v2.50 (InviCro, Needham, MA, USA).

[4] = after removal of solids, octanol extraction, group C
[5] = not extracted into octanol or water, oral tracer (group C)
[6] = octanol extraction, oral tracer (group C)

[68Ga+3].[O-]c1cccc2cccnc12.[O-]c1cccc2cccnc12.[O-]c1cccc2cccnc12 [[^68Ga]KP46]
soluble radioactivity in aqueous phase, large intestine [1, 4]: 95.5% ± 4.2% | soluble radioactivity in aqueous phase, small intestine [1, 4]: 95% ± 2.5% | soluble radioactivity in aqueous phase, stomach [1, 4]: 76.8% ± 8.7% | activity present in solids, large intestine contents [1, 5]: 83.7% ± 8.8% | activity present in solids, small intestine contents [1, 5]: 80.7% ± 19.4% | activity present in solids, stomach contents [1, 5]: 82.9% ± 10.7% | 68Ga in aqueous phase, serum [1, 6]: 98.6% ± 1.5% | 68Ga in aqueous phase, urine [1, 6]: 98.2% ± 1.7% | 68Ga activity delivered to tumour ([2]; bulk (group D)): 0.5 ± 0.3 %ID/g | 68Ga activity in small intestine ([2]; bulk (group D)): 18.4 ± 5 %ID/g | 68Ga activity in stomach ([2]; bulk (group D)): 11.9 ± 8.1 %ID/g | 68Ga activity in large intestine ([2]; bulk (group D, combined with KP46 0.4 μmol)): 56.5 ± 21.4 %ID/g | uptake in large intestine, ex vivo ([2]; tracer level (group C)): 61.7 ± 21.5 %ID/g | uptake in small intestine, ex vivo ([2]; tracer level (group C)): 12.8 ± 4.1 %ID/g | tumour uptake, ex vivo biodistribution ([3]; 4 h, n = 5): 2.6 ± 0.9 %ID/g | tumour uptake of 68Ga by PET/CT ([3]; by four hours): no visible tumour accumulation
